{
  "source": "ChEMBL document CHEMBL6083251",
  "about": "“\"Pseudosubstrate Envelope\"/Free Energy Perturbation-Guided Design and Mechanistic Investigations of Benzothiazole HIV Capsid Modulators with High Ligand Efficiency” (J Med Chem, 2024)",
  "key": {"[1]": {"test": "Clearance in male Sprague-Dawley rat at 2 mg/kg, iv measured upto 24 hrs by LC-MS/MS analysis", "assay_type": "ADME, organism-based", "conditions": "in vivo"}, "[2]": {"test": "Acute toxicity in male Kunming mouse assessed as body weight gain at 1000 mg/kg, IG administered via gavage", "assay_type": "organism-based", "conditions": "in vivo, po"}, "[3]": {"test": "Tmax in male Sprague-Dawley rat at 2 mg/kg, iv measured upto 24 hrs by LC-MS/MS analysis", "assay_type": "ADME, organism-based", "conditions": "in vivo"}, "[4]": {"test": "Metabolic stability in human liver microsomes assessed as half life at 1 uM incubated for 60 mins by LC-MS/MS analysis", "assay_type": "ADME, Microsome"}, "[5]": {"test": "Metabolic stability in human liver microsomes assessed as intrinsic clearance at 1 uM incubated for 60 mins by LC-MS/MS analysis", "assay_type": "ADME, Microsome", "conditions": "read-out: CLH"}, "[6]": {"test": "MRT(0 to infinity) in male Sprague-Dawley rat at 2 mg/kg, iv measured upto 24 hrs by LC-MS/MS analysis", "assay_type": "ADME, organism-based", "conditions": "in vivo"}, "[7]": {"target": "Human immunodeficiency virus type 1 reverse transcriptase (Human immunodeficiency virus 1) (UniProt Q72547)", "test": "Inhibition of HIV1 reverse transcriptase at 6 nM incubated for 1 hr by ELISA analysis"}, "MT4": {"tested_on": "MT4", "test": "Cytotoxicity against human MT4 cells assessed as reduction in cell viability incubated for 5 days by spectrophotometric based MTT assay", "assay_type": "functional", "conditions": "MT4, 120 h, time 5 day"}, "[8]": {"test": "Acute toxicity in female Kunming mouse assessed as body weight gain at 1000 mg/kg, IG administered via gavage", "assay_type": "organism-based", "conditions": "in vivo, po"}, "[9]": {"test": "Half life in male Sprague-Dawley rat at 2 mg/kg, iv measured upto 24 hrs by LC-MS/MS analysis", "assay_type": "ADME, organism-based", "conditions": "in vivo"}, "[10]": {"test": "Selectivity index, ratio of CC50 for human MT4 cells to EC50 for wild type HIV-1 IIIB infected in human MT4 cells", "assay_type": "toxicity, cell-based", "conditions": "read-out: Selectivity Index"}, "[11]": {"test": "Subacute toxicity in male Kunming mouse assessed as animal death at 50 mg/kg, po administered every other day for 14 days", "assay_type": "organism-based", "conditions": "in vivo, 336 h, time 14 day"}, "[12]": {"test": "Tmax in male Sprague-Dawley rat at 10 mg/kg, sc measured upto 24 hrs by LC-MS/MS analysis", "assay_type": "ADME, organism-based", "conditions": "in vivo"}, "[13]": {"test": "Subacute toxicity in male Kunming mouse assessed as hypoactivity at 50 mg/kg, po administered every other day for 14 days", "assay_type": "organism-based", "conditions": "in vivo, 336 h, time 14 day"}, "[14]": {"test": "Cmax in male Sprague-Dawley rat at 10 mg/kg, sc measured upto 24 hrs by LC-MS/MS analysis", "assay_type": "ADME, organism-based", "conditions": "in vivo"}, "[15]": {"tested_on": "Human immunodeficiency virus 1", "test": "Induction of HIV-1 CA-NC assessed as capsid assembly at 10 uM by FRET analysis", "conditions": "filed as modulator"}},
  "note": "Active and inactive are the calls of the source. No cut-off for these calls is given here.",
  "data": [
    {"smiles": "CN(C(=O)[C@H](Cc1cc(F)cc(F)c1)NC(=O)Cc1c[nH]c2ccc(O)cc12)c1ccc2scnc2c1", "values": [
      {"measurement": "CL", "setting": "[1]", "value": 282.751, "unit": "L/h/kg"},
      {"measurement": "Activity", "setting": "[2]", "value": "Non-toxic"},
      {"measurement": "Tmax", "setting": "[3]", "value": 4.98, "unit": "min"},
      {"measurement": "half-life at 1 µM", "setting": "[4]", "value": 91.3, "unit": "min"},
      {"measurement": "CLint scaled at 1 µM", "setting": "[5]", "value": 0.912, "unit": "L/h/kg"},
      {"measurement": "MRT inf", "setting": "[6]", "value": 12.1, "unit": "min"},
      {"measurement": "inhibition", "setting": "[7]", "value": "inactive"},
      {"measurement": "CC50", "setting": "MT4", "value": 133, "unit": "µM"},
      {"measurement": "Activity", "setting": "[8]", "value": "Non-toxic"},
      {"measurement": "half-life", "setting": "[9]", "value": 11.9, "unit": "min"},
      {"measurement": "selectivity ratio", "setting": "[10]", "value": 49400},
      {"measurement": "Activity", "setting": "[11]", "value": "Non-toxic"},
      {"measurement": "Tmax", "setting": "[12]", "value": 79.8, "unit": "min"},
      {"measurement": "Activity", "setting": "[13]", "value": "Non-toxic"},
      {"measurement": "Cmax", "setting": "[14]", "value": 4.99, "unit": "ng/mL"},
      {"measurement": "Activity", "setting": "[15]", "value": "Active"}
    ]}
  ]
}
